# The source made the active and inactive calls.
# Columns and labels:
# Assay type in all cases: functional
# [1] = molecular target: Casein kinase II subunit alpha (Homo sapiens, UniProt P68400)
# [2] = molecular target: Tyrosine-protein kinase receptor UFO (Homo sapiens, UniProt P30530)
# [3] = molecular target: BDNF/NT-3 growth factors receptor (Homo sapiens, UniProt Q16620);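 also: NTRK2 measured as one member of a broad kinome-wide kinase profiling panel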
# Protein RecA = molecular target: T1, Protein RecA (Mycobacterium tuberculosis, UniProt P9WHJ3); experiment: Fluorescence Cell-Free Homogeneous Dose Retest to Identify Inhibitors of RecA-Intein Splicing Activity. [Related pubchem assays (depositor defined):AID2097, AID2223, AID489010, AID492950]
# T1 sequence (P9WHJ3 whole entry): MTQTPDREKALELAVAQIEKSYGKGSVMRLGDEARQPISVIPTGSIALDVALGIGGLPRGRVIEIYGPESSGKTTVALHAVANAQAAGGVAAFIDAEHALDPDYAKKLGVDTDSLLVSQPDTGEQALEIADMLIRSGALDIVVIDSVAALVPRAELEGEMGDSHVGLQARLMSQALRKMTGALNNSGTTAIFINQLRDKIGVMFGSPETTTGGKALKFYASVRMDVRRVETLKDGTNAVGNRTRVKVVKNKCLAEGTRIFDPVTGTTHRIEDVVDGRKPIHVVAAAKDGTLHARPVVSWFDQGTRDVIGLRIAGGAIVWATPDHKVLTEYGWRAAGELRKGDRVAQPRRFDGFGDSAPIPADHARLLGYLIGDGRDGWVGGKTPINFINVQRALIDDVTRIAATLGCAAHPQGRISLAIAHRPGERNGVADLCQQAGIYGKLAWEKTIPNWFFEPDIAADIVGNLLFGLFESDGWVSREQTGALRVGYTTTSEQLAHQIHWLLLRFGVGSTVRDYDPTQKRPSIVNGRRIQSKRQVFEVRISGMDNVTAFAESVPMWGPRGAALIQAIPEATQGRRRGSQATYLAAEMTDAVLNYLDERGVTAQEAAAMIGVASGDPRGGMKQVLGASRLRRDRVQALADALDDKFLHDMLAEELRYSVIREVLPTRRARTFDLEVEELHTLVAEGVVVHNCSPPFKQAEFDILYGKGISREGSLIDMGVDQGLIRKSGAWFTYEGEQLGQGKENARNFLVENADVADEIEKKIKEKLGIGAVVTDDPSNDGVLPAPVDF
# [4] = Intein inhibitors as potential Tuberculosis drugs, a cytotoxicity screen. [Related pubchem assays (depositor defined):AID2221, AID2223, AID434968, AID435010, AID449749, AID449750, AID489010]
# [5] = Luminescence-based dose response cell-based high throughput screening assay for cytotoxic compounds using the IEC-6 intestinal epithelial cell line. [Related pubchem assays: 1858 (Summary AID.), 1825 (Counterscreen.), 1907 (Confirmation screen.)]
# [6] = cytotoxicity in HEK-293T NF-kB-Luc cells, dose response, cytotoxicity control for B/T-cell NF-kB inhibitor project, cell-based, uHTS hits (AID 489019);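 also: IC50 reflects cytotoxicity as loss of cell viability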
# [7] = molecular target: T2, Sentrin-specific protease 6 (Homo sapiens, UniProt Q9GZR1);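 also: Luminescence-based dose-response confirmatory assay of SENP6 inhibition, following up an ultra-high-throughput screen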
# T2 sequence (Q9GZR1 whole entry): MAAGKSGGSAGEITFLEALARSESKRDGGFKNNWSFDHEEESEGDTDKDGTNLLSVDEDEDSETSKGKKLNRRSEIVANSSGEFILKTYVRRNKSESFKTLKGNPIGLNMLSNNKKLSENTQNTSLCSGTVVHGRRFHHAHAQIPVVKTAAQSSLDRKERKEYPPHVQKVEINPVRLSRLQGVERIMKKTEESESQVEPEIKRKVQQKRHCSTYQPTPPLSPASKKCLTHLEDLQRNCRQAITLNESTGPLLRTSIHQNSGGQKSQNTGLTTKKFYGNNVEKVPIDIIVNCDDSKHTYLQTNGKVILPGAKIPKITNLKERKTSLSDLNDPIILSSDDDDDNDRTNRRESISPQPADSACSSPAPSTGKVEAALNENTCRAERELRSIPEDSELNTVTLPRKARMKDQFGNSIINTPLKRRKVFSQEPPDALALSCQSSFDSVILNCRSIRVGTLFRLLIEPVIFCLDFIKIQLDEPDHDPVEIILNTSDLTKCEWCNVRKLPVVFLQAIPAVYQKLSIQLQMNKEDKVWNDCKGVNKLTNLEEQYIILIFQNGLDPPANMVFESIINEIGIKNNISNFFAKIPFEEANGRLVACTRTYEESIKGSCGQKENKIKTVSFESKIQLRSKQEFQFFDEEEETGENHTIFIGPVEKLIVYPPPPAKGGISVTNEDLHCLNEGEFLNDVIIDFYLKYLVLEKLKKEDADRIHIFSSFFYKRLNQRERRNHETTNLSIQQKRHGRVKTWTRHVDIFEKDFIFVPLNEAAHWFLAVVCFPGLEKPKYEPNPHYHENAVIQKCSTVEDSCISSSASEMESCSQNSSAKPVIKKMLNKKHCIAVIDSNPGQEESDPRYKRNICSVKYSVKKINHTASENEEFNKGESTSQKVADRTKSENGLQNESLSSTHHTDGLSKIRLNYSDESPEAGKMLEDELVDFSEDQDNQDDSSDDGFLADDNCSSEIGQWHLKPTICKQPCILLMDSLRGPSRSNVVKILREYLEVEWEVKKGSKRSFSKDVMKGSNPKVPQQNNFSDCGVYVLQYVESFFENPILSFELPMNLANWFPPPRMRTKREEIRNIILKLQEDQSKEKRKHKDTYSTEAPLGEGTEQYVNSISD
# Caspase-3 = molecular target: T3, Caspase-3 (Homo sapiens, UniProt P42574);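 also: Dose-response selectivity test against caspase-3 for candidate inhibitors of sentrin-specific proteases (SENPs)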
# T3 sequence (P42574 whole entry): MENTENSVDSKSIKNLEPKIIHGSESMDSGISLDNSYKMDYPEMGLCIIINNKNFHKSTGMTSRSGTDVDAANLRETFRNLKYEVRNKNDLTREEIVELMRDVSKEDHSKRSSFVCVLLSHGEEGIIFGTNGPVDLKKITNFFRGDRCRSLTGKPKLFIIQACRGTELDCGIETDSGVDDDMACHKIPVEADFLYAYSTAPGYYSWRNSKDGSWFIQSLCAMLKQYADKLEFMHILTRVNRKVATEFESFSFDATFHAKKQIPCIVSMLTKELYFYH
# 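For CC50 in this document: cells exposed to compound for 72 hours before luminescence readout.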
# Casein kinase II subunit alpha, sequence (P68400 whole entry): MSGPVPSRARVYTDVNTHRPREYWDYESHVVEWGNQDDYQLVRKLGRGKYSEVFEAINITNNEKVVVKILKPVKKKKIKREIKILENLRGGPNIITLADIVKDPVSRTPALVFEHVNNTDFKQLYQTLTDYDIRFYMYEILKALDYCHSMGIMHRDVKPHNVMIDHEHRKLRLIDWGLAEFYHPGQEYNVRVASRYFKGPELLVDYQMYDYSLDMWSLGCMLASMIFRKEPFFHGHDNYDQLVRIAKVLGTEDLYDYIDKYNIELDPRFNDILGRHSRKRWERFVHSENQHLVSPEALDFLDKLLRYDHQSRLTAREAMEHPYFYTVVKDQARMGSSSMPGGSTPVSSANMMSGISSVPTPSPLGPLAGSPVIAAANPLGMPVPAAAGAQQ
# Tyrosine-protein kinase receptor UFO, sequence (P30530 whole entry): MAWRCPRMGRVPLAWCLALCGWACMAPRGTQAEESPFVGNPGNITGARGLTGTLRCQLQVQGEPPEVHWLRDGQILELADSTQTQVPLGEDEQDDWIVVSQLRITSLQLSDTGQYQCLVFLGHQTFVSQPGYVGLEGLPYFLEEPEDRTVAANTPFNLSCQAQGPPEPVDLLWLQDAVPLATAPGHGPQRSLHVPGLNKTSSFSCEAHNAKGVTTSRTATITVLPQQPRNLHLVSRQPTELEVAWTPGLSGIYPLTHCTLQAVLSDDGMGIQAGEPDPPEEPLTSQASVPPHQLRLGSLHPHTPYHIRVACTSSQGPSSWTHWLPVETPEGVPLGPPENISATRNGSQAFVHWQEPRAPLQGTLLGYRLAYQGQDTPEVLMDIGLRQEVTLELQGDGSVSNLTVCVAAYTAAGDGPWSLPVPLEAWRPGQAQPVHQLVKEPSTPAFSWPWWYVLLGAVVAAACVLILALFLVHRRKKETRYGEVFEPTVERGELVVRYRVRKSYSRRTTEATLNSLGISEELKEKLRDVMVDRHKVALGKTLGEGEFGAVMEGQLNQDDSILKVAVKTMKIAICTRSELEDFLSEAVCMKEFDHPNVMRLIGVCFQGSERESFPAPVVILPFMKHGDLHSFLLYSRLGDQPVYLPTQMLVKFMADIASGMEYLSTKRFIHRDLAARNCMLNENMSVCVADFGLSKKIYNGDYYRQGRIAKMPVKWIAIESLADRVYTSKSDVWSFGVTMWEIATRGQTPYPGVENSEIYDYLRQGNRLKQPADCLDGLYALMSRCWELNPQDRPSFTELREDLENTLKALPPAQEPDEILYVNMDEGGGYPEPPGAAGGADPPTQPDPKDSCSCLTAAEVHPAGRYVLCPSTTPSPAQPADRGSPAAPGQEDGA
# BDNF/NT-3 growth factors receptor, sequence (Q16620 whole entry): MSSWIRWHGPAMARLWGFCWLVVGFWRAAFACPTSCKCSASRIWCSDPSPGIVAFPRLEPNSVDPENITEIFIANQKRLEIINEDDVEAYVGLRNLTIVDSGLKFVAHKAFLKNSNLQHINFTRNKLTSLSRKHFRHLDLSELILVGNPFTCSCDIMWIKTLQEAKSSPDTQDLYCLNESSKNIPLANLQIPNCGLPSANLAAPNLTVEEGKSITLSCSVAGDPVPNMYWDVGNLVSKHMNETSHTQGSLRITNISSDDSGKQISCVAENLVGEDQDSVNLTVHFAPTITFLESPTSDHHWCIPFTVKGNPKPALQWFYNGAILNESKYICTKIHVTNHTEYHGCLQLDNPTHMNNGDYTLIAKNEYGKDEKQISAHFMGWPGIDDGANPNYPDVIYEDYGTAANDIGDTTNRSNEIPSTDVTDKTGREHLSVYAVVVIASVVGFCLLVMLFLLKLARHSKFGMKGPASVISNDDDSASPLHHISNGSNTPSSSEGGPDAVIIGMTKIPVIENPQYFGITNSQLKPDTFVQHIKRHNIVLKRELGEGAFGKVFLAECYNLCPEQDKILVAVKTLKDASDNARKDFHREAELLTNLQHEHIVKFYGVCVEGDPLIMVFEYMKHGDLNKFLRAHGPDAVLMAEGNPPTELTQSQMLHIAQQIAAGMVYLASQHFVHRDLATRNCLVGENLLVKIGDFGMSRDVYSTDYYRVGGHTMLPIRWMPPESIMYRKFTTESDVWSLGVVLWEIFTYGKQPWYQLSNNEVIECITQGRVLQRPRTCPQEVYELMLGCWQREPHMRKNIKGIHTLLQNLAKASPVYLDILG
compound,measurement,setting,value
COc1cc2c(cc1Nc1nc(Nc3cccc(F)c3C(N)=O)c3cc[nH]c3n1)N(C(=O)CN(C)C)CC2,Ki,[1],0.631 µM (active)
same,Ki,[2],0.126 µM (active)
same,Ki,[3],> 3.98 µM (inactive)
CCn1nc(/C=C/c2ccccc2)nc2c(=O)n(C)c(=O)nc1-2,EC50,Protein RecA,0.0368 µM (active)
same,CC50,[4],> 40 µM (active)
same,IC50,[5],0.335 µM (active)
CC(C)c1ccc(-c2nnn(CCC(=O)O)n2)cc1,IC50,[6],> 80 µM (inactive)
same,IC50,[7],9.32 µM (active)
same,IC50,Caspase-3,48.6 µM (active)
